Experimental data reported in paper PMC7794397, “Curbing gastrointestinal infections by defensin fragment modifications without harming commensal microbiota” (Communications Biology, 2021).
Values after ≈ are worked out from the molar mass of the structure shown. Where two headings read alike, the source gives them in different places. Non-standard residues stand in square brackets, D forms with d. Residues, ends and D or L forms follow the SMILES beside them. ξ: configuration not given here. *: point of attachment. X2 = CCCCCCCCCCCCCCCC(=O)OCC(COC(=O)CCC(=O)*)OC(=O)CCCCCCCCCCCCCCC; X1 = CCCCCCCCCCCCCCCC(=O)OCC(C*)OC(=O)CCCCCCCCCCCCCCC; Palmitoyl = CCCCCCCCCCCCCCCC(=O)*; ξK = NCCCCC(N)C(=O)O; ξC = NC(CS)C(=O)O

How the values were obtained:
[1] = tested on: E. coli; test: Antibiogram of ESKAPE pathogens; type: cell-based; settings: Escherichia coli, column assigned by order in flattened table
Description: (§1) Supplementary Table 1. Antibiogram of ESKAPE pathogens used in this study.
(§2) Bacteria susceptible to all (blue color) or intermediate/resistant to at least one (red color) of antibiotics per class following the EUCAST breakpoints. Black color is shown if the susceptibility to agents in that class is not assessed. Values are minimal inhibition concentrations (MIC) in µg/ml or for Chloramphenicol in diameter (mm). […]

[2] = tested on: ESKAPE pathogens; test: organism not typed
Description: as §1, §2

[3] = tested on: E. faecium; test: microbe, parasite or virus in culture; settings: for MIC: Enterococcus faecium
Description: as §1, §2

[4] = tested on: multidrug resistant bacteria belonging to the ESKAPE pathogen panel; type: cell-based; settings: broth microdilution, ESKAPE panel
Method: Bactericidal activity was assessed by broth microdilution assay. […] After incubation, 100 µl of 6% TSB (w/v) were added and absorbance was measured at 600 nm (Tecan, Switzerland) and monitored for 18 h. Afterward, 100 µl per well were plated on LB agar to determine the numbers of viable bacteria microbiologically. Bactericidal activity is expressed as the LC99.9, the lowest concentration that killed ≥99.9 % of bacteria.

[5] = tested on: several pathogenic bacteria; test: Radial diffusion assay, all tested strains; type: cell-based
Method: (§3) Antimicrobial activity was analyzed by radial diffusion assay. Log-phase bacteria were cultivated for up to 18 h in TSB (TSB, Becton Dickinson, USA), washed and diluted to 4 × 10^6 CFU in 10 ml agar. Bacteria were incubated in 10 ml of 10 mM sodium phosphate, pH 7.4, containing 0.3 mg/ml of TSB powder and 1% (w/v) low EEO-agarose (AppliChem). 1 µg of each lipopeptide was pipetted into punched wells in a final volume of 4 µl and diffused into the gel for 3 h at 37 °C. After that, a nutrient-rich gel with 6% TSB (w/v) and 1% agarose in 10 mM sodium phosphate buffer was poured on top of the first gel and incubated for up to 24 h at 37 °C. Then the diameter of inhibition zones was measured.

[6] = tested on: S. aureus ATCC 25923; type: cell-based; settings: for Fold change in MIC: relative to MIC of first passage, Mean
Method: Development of resistance to the peptides was assessed with S. aureus and S. Typhimurium. […] Bacteria were cultured overnight at 37 °C at 150 rpm in TSB. Bacteria were washed twice with 10 mM sodium phosphate buffer containing 1% (w/v) TSB. […] After incubation, 100 µl of 6% TSB (w/v) was added and plates incubated in a humidified atmosphere for 21 h at 37 °C and 150 rpm.
The MIC, the lowest concentration of peptide/antibiotic that caused a lack of visible bacterial growth, was determined for each bacterial species. […] This was repeated for 25 passages.

[7] = tested on: S. aureus; test: Antibiogram of ESKAPE pathogens; type: cell-based; settings: Staphylococcus aureus
Description: as §1, §2

[8] = tested on: C. rodentium; type: cell-based; settings: 1 µg peptide/well, 2.5 mm = empty well
Method: as §3

[9] = tested on: P. aeruginosa; type: cell-based; settings: 1 µg peptide/well, 2.5 mm = empty well
Method: as §3

[10] = tested on: S. aureus; type: cell-based; settings: 1 µg peptide/well, 2.5 mm = empty well
Method: as §3

[11] = tested on: S. Typhimurium; type: cell-based; settings: for diameter of inhibition zone: 1 µg peptide/well, 2.5 mm = empty well
Method: as §3

CC1(C)S[C@@H]2[C@H](NC(=O)[C@H](N)c3ccccc3)C(=O)N2[C@H]1C(=O)O [Ampicillin]
MIC ([1]; strain DSM682): ≥ 32 µg/mL
MIC ([1]; strain DSM8695): 8 µg/mL (≈ 22.9 µM)

C[C@H]1[C@H](NC(=O)/C(=N\OC(C)(C)C(=O)O)c2csc(N)n2)C(=O)N1S(=O)(=O)O [Aztreonam]
MIC ([2]; read-out: MIC (antibiogram)): > 256 µg/mL

CO/N=C(\C(=O)N[C@@H]1C(=O)N2C(C(=O)O)=C(COC(N)=O)CS[C@H]12)c1ccco1 [Cefuroxim]
MIC ([1]; strain DSM682): ≥ 64 µg/mL

O=C(N[C@H](CO)[C@H](O)c1ccc([N+](=O)[O-])cc1)C(Cl)Cl [Chloramphenicol]
diameter (antibiogram) ([2]; one strain of E. faecium, S. aureus or K. pneumoniae, not assignable): 22 mm

CCCCCCCCCC(=O)N[C@@H](Cc1c[nH]c2ccccc12)C(=O)N[C@H](CC(N)=O)C(=O)N[C@@H](CC(=O)O)C(=O)N[C@@H]1C(=O)NCC(=O)N[C@@H](CCCN)C(=O)N[C@@H](CC(=O)O)C(=O)N[C@H](C)C(=O)N[C@@H](CC(=O)O)C(=O)NCC(=O)N[C@H](CO)C(=O)N[C@@H]([C@H](C)CC(=O)O)C(=O)N[C@@H](CC(=O)c2ccccc2N)C(=O)O[C@@H]1C [Daptomycin]
MIC (antibiogram) [3]: 4 µg/mL (≈ 2.47 µM)

CNC(C)C1CCC(N)C(OC2C(N)CC(N)C(OC3OCC(C)(O)C(NC)C3O)C2O)O1 (centres unmarked) [Gentamicin]
MIC ([1]; strain DSM8695): ≤ 1 µg/mL

C[C@@H](O)[C@H]1C(=O)N2C(C(=O)O)=C(SCCN=CN)C[C@H]12 [Imipenem]
MIC ([1]; strain DSM682): 2 µg/mL (≈ 6.68 µM)
MIC ([1]; strain DSM8695): ≤ 0.25 µg/mL

C[C@@H](O)[C@H]1C(=O)N2C(C(=O)O)=C(S[C@@H]3CN[C@H](C(=O)N(C)C)C3)[C@H](C)[C@H]12 [Meropenem]
MIC ([1]; strain DSM682): 8 µg/mL (≈ 20.9 µM)
MIC ([1]; strain DSM8695): ≤ 0.25 µg/mL

CCCCCCCCCCCCCCCC(=O)OCC(COC(=O)CCC(=O)N[C@@H](CCCNC(=N)N)C(=O)NCC(=O)N[C@@H](CCCCN)C(=O)N[C@@H](C)C(=O)N[C@@H](CCCCN)C(=O)N[C@@H](CS)C(=O)N[C@@H](CS)C(=O)N[C@@H](CCCCN)C(=O)O)OC(=O)CCCCCCCCCCCCCCC (some centres unmarked) [Pam-1] (X2-RGKAKCCK-OH; C-terminus assumed)
bactericidal activity (in words) [4]: no or low bactericidal activity
antimicrobial activity (in words) [5]: generally inactive

CCCCCCCCCCCCCCCC(=O)NC(CSCC(COC(=O)CCCCCCCCCCCCCCC)OC(=O)CCCCCCCCCCCCCCC)C(=O)N[C@@H](CCCNC(=N)N)C(=O)NCC(=O)N[C@@H](CCCCN)C(=O)N[C@@H](C)C(=O)N[C@@H](CCCCN)C(=O)N[C@@H](CS)C(=O)N[C@@H](CS)C(=O)N[C@@H](CCCCN)C(=O)O (some centres unmarked) [Pam-4] (Palmitoyl-[ξC](X1)RGKAKCCK-OH; C-terminus assumed)
bactericidal activity (in words) [4]: no or low bactericidal activity
antimicrobial activity (in words) [5]: generally inactive

CCCCCCCCCCCCCCCC(=O)NCCCCC(NC(=O)CCCCCCCCCCCCCCC)C(=O)N[C@@H](CCCNC(=N)N)C(=O)NCC(=O)N[C@@H](CCCCN)C(=O)N[C@@H](C)C(=O)N[C@@H](CCCCN)C(=O)N[C@@H](CS)C(=O)N[C@@H](CS)C(=O)N[C@@H](CCCCN)C(=O)O (some centres unmarked) [Pam-5] (Palmitoyl-[ξK](Palmitoyl)RGKAKCCK-OH; C-terminus assumed)
bactericidal activity (in words) [4]: moderate effects
antimicrobial activity (in words) [5]: generally inactive

CCN1CCN(C(=O)N[C@@H](C(=O)N[C@@H]2C(=O)N3[C@@H]2SC(C)(C)[C@@H]3C(=O)O)c2ccccc2)C(=O)C1=O [Piperacillin]
MIC ([1]; strain DSM8695): ≤ 4 µg/mL

CO[C@H]1/C=C/O[C@@]2(C)Oc3c(C)c(O)c4c(O)c(c(/C=N/N5CCN(C)CC5)c(O)c4c3C2=O)NC(=O)/C(C)=C\C=C\[C@H](C)[C@H](O)[C@@H](C)[C@@H](O)[C@@H](C)[C@H](OC(C)=O)[C@@H]1C [Rifampicin, reference compound]
Fold change in MIC ([6]; Day (passage) 0): 1.0
Fold change in MIC ([6]; Day (passage) 1): 0.8
Fold change in MIC ([6]; Day (passage) 2): 1.0
Fold change in MIC ([6]; Day (passage) 3): 1.0
Fold change in MIC ([6]; Day (passage) 4): 1.7
Fold change in MIC ([6]; Day (passage) 5): 3.7
Fold change in MIC ([6]; Day (passage) 6): 43.3
Fold change in MIC ([6]; Day (passage) 7): 87.3
Fold change in MIC ([6]; Day (passage) 8): 163.3
Fold change in MIC ([6]; Day (passage) 9): 348.0
Fold change in MIC ([6]; Day (passage) 10): 768.7
Fold change in MIC ([6]; Day (passage) 11): 1366.0
Fold change in MIC ([6]; Day (passage) 12): 2731.4
Fold change in MIC ([6]; Day (passage) 13): 2732.0
Fold change in MIC ([6]; Day (passage) 14): 3200.7
Fold change in MIC ([6]; Day (passage) 15): 4267.4
Fold change in MIC ([6]; Day (passage) 16): 4267.4
Fold change in MIC ([6]; Day (passage) 17): 4268.0
Fold change in MIC ([6]; Day (passage) 18): 4267.4
Fold change in MIC ([6]; Day (passage) 19): 2733.4
Fold change in MIC ([6]; Day (passage) 20): 2731.5
Fold change in MIC ([6]; Day (passage) 21): 2731.4
Fold change in MIC ([6]; Day (passage) 22): 2731.4
Fold change in MIC ([6]; Day (passage) 23): 2733.4
Fold change in MIC ([6]; Day (passage) 24): 2741.4
Fold change in MIC ([6]; Day (passage) 25): 2816.0
increase of MIC ([6]; after 15 passages): ≥ 4096 fold

CN(C)[C@@H]1C(=O)C(C(N)=O)=C(O)[C@@]2(O)C(=O)C3=C(O)c4c(O)cccc4[C@@](C)(O)[C@H]3C[C@@H]12 [Tetracyclin]
MIC (antibiogram) ([2]; one strain of A. baumannii, P. aeruginosa or E. coli, not assignable): ≥ 256 µg/mL

NC[C@H]1O[C@H](O[C@H]2[C@H](O)[C@@H](O[C@H]3O[C@H](CO)[C@@H](O)[C@H](N)[C@H]3O)[C@H](N)C[C@@H]2N)[C@H](N)C[C@@H]1O [Tobramycin]
MIC ([1]; strain DSM8695): ≤ 1 µg/mL

CN[C@H](CC(C)C)C(=O)N[C@H]1C(=O)N[C@@H](CC(N)=O)C(=O)N[C@H]2C(=O)N[C@H]3C(=O)N[C@H](C(=O)N[C@H](C(=O)O)c4cc(O)cc(O)c4-c4cc3ccc4O)[C@H](O)c3ccc(c(Cl)c3)Oc3cc2cc(c3O[C@@H]2O[C@H](CO)[C@@H](O)[C@H](O)[C@H]2O[C@H]2C[C@](C)(N)[C@H](O)[C@H](C)O2)Oc2ccc(cc2Cl)[C@H]1O [Vancomycin]
MIC ([3]; DSM2918, read-out: MIC (antibiogram)): ≥ 32 µg/mL
MIC ([3]; read-out: MIC (antibiogram)): ≥ 32 µg/mL
MIC ([7]; ATCC33592, read-out: MIC (antibiogram)): 1 µg/mL (≈ 0.69 µM)
MIC ([7]; ATCC43300, read-out: MIC (antibiogram)): 1 µg/mL (≈ 0.69 µM)
MIC ([7]; DSM20231, read-out: MIC (antibiogram)): 1 µg/mL (≈ 0.69 µM)

RGKAKCCK [Octapeptide, the C-terminal eight amino acids of human β-defensin 1]
diameter of inhibition zone ([8]; experiment 1 of 3): 5.5 mm
diameter of inhibition zone ([8]; experiment 2 of 3): 5 mm
diameter of inhibition zone ([8]; experiment 3 of 3): 5.5 mm
diameter of inhibition zone ([9]; experiment 1 of 3): 3.5 mm
diameter of inhibition zone ([9]; experiment 2 of 3): 4 mm
diameter of inhibition zone ([9]; experiment 3 of 3): 4 mm
diameter of inhibition zone ([10]; experiment 1 of 3): 6 mm
diameter of inhibition zone ([10]; experiment 2 of 3): 7 mm
diameter of inhibition zone ([10]; experiment 3 of 3): 6.5 mm
diameter of inhibition zone ([11]; experiment 1 of 3): 2.5 mm
diameter of inhibition zone ([11]; experiment 2 of 3): 2.5 mm
diameter of inhibition zone ([11]; experiment 3 of 3): 2.5 mm
inhibition of S. Typhimurium growth (in words) ([11]; radial diffusion assay): failed to inhibit
